Counter-ions that a name gives are not always drawn.
Key:
[1] = Rat oral pharmacokinetics of capecitabine with or without triethyl citrate; type: in vivo, rats; conditions: capecitabine in rat plasma, capecitabine 5 mg/kg, triethyl citrate 45 mg/kg where given
Experimental: Capecitabine is an ester prodrug, which is hydrolyzed mainly by CE2 in the GI track and CE1 in the liver and then converted by two enzymes to its active drug (5-fluorouracil) in the tumor after oral administration of capecitabine to cancer patients. […] Each rat received capecitabine (5 mg/kg) in DMSO or capecitabine (5 mg/kg) in DMSO/triethyl citrate (45 mg/kg).

[2] = Rat oral pharmacokinetics of capecitabine with or without triethyl citrate/triacetin; type: in vivo, rats; conditions: capecitabine in rat plasma, capecitabine 5 mg/kg, triethyl citrate 22.5 mg/kg + triacetin 22.5 mg/kg where given
Experimental: In a rat study similar to the study described above, each rat received capecitabine (5 mg/kg) in DMSO or capecitabine (5 mg/kg) in DMSO/triethyl citrate (22.5 mg/kg)/triacetin (22.5 mg/kg).

CE from porcine liver [3] = test: In vitro CE-mediated hydrolysis of olmesartan medoxomil in the presence of ester excipients; type: in vitro ADME; conditions: for effect on CE-mediated hydrolysis of olmesartan medoxomil (in words): compared with lecithin, Table 1; for preliminary screen of ester excipients for impeding hydrolysis of olmesartan medoxomil by CE in vitro: preliminary results
Experimental: Various known pharmaceutical ester excipients including triacetin, glyceryl tristearate, triethyl citrate, lecithin, tri-n-butyl citrate, acetyl triethyl citrate, and acetyl tri-n-butyl citrate were respectively tested to determine whether any of them impedes hydrolysis of olmesartan medoxomil by CE in vitro.
Test solutions (a) to (f) were prepared respectively as follows: (a) 10 μM of olmesartan medoxomil dissolved in 10% DMSO (dimethyl sulfoxide)/90% PEG400 (w/w, stability control); (b) 10 μM of olmesartan medoxomil dissolved in 10% DMSO/90% PEG400 (w/w, blank control) (c) 10 μM of olmesartan medoxomil dissolved in 10% DMSO/12% triacetin/78% PEG400 (w/w/w); (d) 10 μM of olmesartan medoxomil dissolved in 10% DMSO/12% triethyl citrate/78% PEG400 (w/w/w); (e) 10 μM of olmesartan medoxomil dissolved in 10% DMSO/12% lecithin/78% PEG400 (w/w/w); and (f) 10 μM of olmesartan medoxomil dissolved in 10% DMSO/6% triacetin/6% triethyl citrate/78% PEG400 (w/w/w/w).
CE from porcine liver (17 units/mg, available from Sigma-Aldrich) was dissolved in simulated intestinal fluid (SIF, pH=6.8) to yield a CE solution (17 units/ml). SIF was prepared by dissolving 0.6805 g of KH2PO4 and 0.0896 g of NaOH in 100 ml of de-ionized water.
Each 70 μl of olmesartan medoxomil solution (i.e., solutions (a)-(f)) was mixed with 70 μl of SIF and thereby forming mixtures (a) to (f). Each of the mixtures (a) to (f) was transferred to one well of a 96-well plate, and 60 μl each of the CE solution was added to respective wells containing mixtures (b) to (f) to initiate the reaction. In addition, sixty (60) μl of SIF without CE was added to mixture (a). This incubation mixture without CE was used as a stability control to determine the chemical stability of olmesartan medoxomil in the incubation mixture. The mixtures were incubated for 20 minutes under the air at 37° C. with constant shaking on a temperature-controlled heating block.
At the end of the 20-minute incubation, 100 μl of ice-cold acetonitrile was added to each well to terminate the reaction. Each mixture was vortexed and centrifuged at 15,000×g for 20 min at room temperature. The supernatants were tested in HPLC/UV analysis, in which the concentration of olmesartan medoxomil in each mixture was measured. Percentages (%) of olmesartan medoxomil remaining in the mixtures were calculated based on the obtained data.

CE from porcine liver [4] = test: In vitro CE-mediated hydrolysis of clopidogrel in the presence of triacetin, triethyl citrate or both; type: in vitro ADME; conditions: Table 2
in vivo = conditions: male, Sprague-Dawley, rat, po, 30 mg/kg
Experimental: Male rats (Sprague-Dawley, 300-400 g) were surgically implanted with jugular-vein cannulas one day prior to dosing and fasted overnight (about 18-20 hours) prior to dosing. Water was available ad libitum throughout the experiment. Dosing solutions of olmesartan medoxomil (5 mg/ml) were prepared in a vehicle of DMSO/PEG400 (10/90, v/v) or DMSO/PEG400/triacetin (10/80/10, v/v). Single oral doses of the olmesartan medoxomil and olmesartan medoxomil/triacetin were each administered separately to a group of 3 male rats by gavage. Each rat received olmesartan medoxomil (5 mg/kg) in DMSO/PEG400 (10/90, v/v) or olmesartan medoxomil (5 mg/kg) in DMSO/PEG400/triacetin (10/80/10, v/v).
Blood samples (0.15 ml/rat) were collected from each rat via the jugular-vein cannula at 0, 0.25, 0.5, 1, 2, 4, 6, 8, and 24 hours after dosing. Plasma was separated from blood cells by centrifugation and frozen at −20° C. until analysis. […] A plasma concentration-time curve was plotted based on the obtained data.

[5] = Rat oral pharmacokinetics of clopidogrel bisulfate (3 mg/kg) with or without triethyl citrate/triacetin; type: in vivo, rats; conditions: Sprague-Dawley, plasma
Experimental: Serial plasma samples were obtained from each rat and concentrations of clopidogrel and clopidogrel acid in the plasma samples were determined by LC-MS/MS.

[6] = Rat oral pharmacokinetics of olmesartan medoxomil with or without triacetin; type: in vivo, rats (Sprague-Dawley); conditions: rats, oral administration, plasma LC-MS/MS
Experimental: Water was available ad libitum throughout the experiment. Dosing solutions of olmesartan medoxomil (5 mg/ml) were prepared in a vehicle of DMSO/PEG400 (10/90, v/v) or DMSO/PEG400/triacetin (10/80/10, v/v). […] Each rat received olmesartan medoxomil (5 mg/kg) in DMSO/PEG400 (10/90, v/v) or olmesartan medoxomil (5 mg/kg) in DMSO/PEG400/triacetin (10/80/10, v/v).

[7] = mean n=3, read-out: AUC0-24 hr of capecitabine

Work on CCCCCOC(=O)Nc1nc(=O)n([C@@H]2O[C@H](C)[C@@H](O)[C@H]2O)cc1F [Capecitabine, capecitabine] yielded a Cmax ([1]; mean n=3) of 11.8 ng/mL, a Tmax ([1]; mean n=3) of 0.8 h and an AUC(0-t) [1, 7] of 0.034 µg·h/mL. It also gave a Cmax ([2]; mean n=3) of 8.9 ng/mL, a Tmax ([2]; mean n=3) of 0.4 h and an AUC(0-t) [2, 7] of 0.015 µg·h/mL.
For CC(=O)OCC(COC(C)=O)OC(C)=O [triacetin], the “effect on CE-mediated hydrolysis of olmesartan medoxomil (in words)” value (CE from porcine liver [3]) was “retards CE-mediated hydrolysis of olmesartan medoxomil”, the “preliminary screen of ester excipients for impeding hydrolysis of olmesartan medoxomil by CE in vitro” value (CE from porcine liver [3]) was “promising candidates” and the “effect on CE-mediated hydrolysis of clopidogrel (in words)” value (CE from porcine liver [4]) was “retard CE-mediated hydrolysis of clopidogrel”.
With CCOC(=O)CC(O)(CC(=O)OCC)C(=O)OCC [triethyl citrate] the “effect on CE-mediated hydrolysis of olmesartan medoxomil (in words)” value (CE from porcine liver [3]) was “retards CE-mediated hydrolysis of olmesartan medoxomil”, the “preliminary screen of ester excipients for impeding hydrolysis of olmesartan medoxomil by CE in vitro” value (CE from porcine liver [3]) was “promising candidates” and the “effect on CE-mediated hydrolysis of clopidogrel (in words)” value (CE from porcine liver [4]) was “retard CE-mediated hydrolysis of clopidogrel”. The “effectiveness in impeding CE-mediated hydrolysis of clopidogrel compared with triacetin and lecithin (in words)” value (CE from porcine liver [4]) was “more effective in impeding CE-mediated hydrolysis of clopidogrel than triacetin and lecithin”.
In the case of COC(=O)[C@H](c1ccccc1Cl)N1CCc2sccc2C1 [Clopidogrel Bisulfate, clopidogrel bisulfate], the AUC(0-t) (in vivo) is reported as 0.028 µg·h/mL, the Cmax (in vivo) is reported as 7.3 ng/mL and the Tmax (in vivo) is reported as 4.1 h. For the same compound, the Cmax [5] was 0.8 ng/mL, the Tmax [5] was 2.9 h and the AUC(0-t) ([5]; read-out: AUC0-24 hr of clopidogrel) was 0.002 µg·h/mL.
In the case of CCCc1nc(C(C)(C)O)c(C(=O)OCc2oc(=O)oc2C)n1Cc1ccc(-c2ccccc2-c2nnn[nH]2)cc1 [Olmesartan Medoxomil, olmesartan medoxomil], the “hydrolysis of olmesartan medoxomil to olmesartan after absorption” value [6] is reported as “completely hydrolyzed to olmesartan”.
